Literature values as cited in US20070237728A1, “Method and Composition for Dental Bleaching” (HIGH TECH LASER, priority 2000, published 2007).
Like-named read-outs stand apart in the source and are kept apart here.

Test system: teeth

type of teeth discolouration caused (tetracycline staining of teeth)	Structure (SMILES)	type of teeth discolouration caused (in vivo)
yellow discolouration	CN(C)[C@@H]1C(O)=C(C(N)=O)C(=O)[C@@]2(O)C(O)=C3C(=O)c4c(O)ccc(Cl)c4[C@@H](O)[C@H]3C[C@@H]12 [dimethylchlorotetracyclin]	–
–	CN(C)[C@@H]1C(=O)C(C(N)=O)=C(O)[C@@]2(O)C(=O)C3=C(O)c4c(O)cccc4[C@@](C)(O)[C@H]3[C@H](O)[C@@H]12 [oxytetracyclin]	yellow discolouration
yellow discolouration	CN(C)[C@@H]1C(O)=C(C(N)=O)C(=O)[C@@]2(O)C(O)=C3C(=O)c4c(O)cccc4[C@@](C)(O)[C@H]3C[C@@H]12 [tetracycline]	–
